Assay results taken from US4784992A, “Phosphorylalkanolamide derivatives of L-carnitine and pharmaceutical compositions containing same” (Sigma-Tau Industrie Farmaceutiche Riunite S.p.A., priority 1986, dated 1988).

Assays:
[1] = system: erucic acid-induced myocardial steatosis; test: erucic acid-induced myocardial steatosis model in the rat (erucic acid-rich rape oil diet); type: in vivo, rat (male Wistar); details: for Cholesterol / ATP: n=6; for Cholesterol: controls 32.7 ±11.95; for ATP: controls 34.2 ±8.73
Text: (§1) A myocardial steatosis model, in which an L-carnitine positive effect was already described, was used in the rat. The steatosis was induced by adding, for five (5) consecutive days, erucic acid-rich rape oil in the rats' normal daily diet, according to the method described by Branca et al. (Internat., Vit. Nutr. Res., 47, 162-166, 1977). Trial-groups of six (6) male Wistar rats, weighing from 190 g to 220 g, were used.
These effects were statistically significant with Student's t test.

normal mouse's behaviour = test: Irwin's test in the mouse (normal mouse's behaviour); type: in vivo; details: 1000 mg/kg e.p.; 4 M + 4 F
Experimental: (§2) The effects of L-carnitine phosphorylethanolamide to Irwin's test in the mouse and acute toxicity after endoperitoneal administration of the substance, always in the mouse, were also evaluated.

[2] = acute toxicity in the mouse (mortality curve and LD50); type: in vivo; details: in vivo, ip; mouse, e.p.; 7 days observation
Experimental: as §2

mouse = test: as above; type: in vivo; details: 4 M + 4 F, 7 days observation
Experimental: as §2

[3] = solubility and appearance of the inner salt; type: physicochemical
Text: A 20% aqueous solution of the calcium salt of L-carnitine phosphorylethanolamide was passed through AMBERLITE IR 120 activated with a 10% solution of hydrochloric acid. The eluate was neutralized with AMBERLITE IR 45 resin. The solution was then concentrated to dryness under vacuum. A white product crystallized which was taken up with warm ethanol.

lipid metabolism = test: restoring to normal any imbalance in the lipid metabolism / summary of the pharmacological trials; type: in vivo
Text: as §1
The model of erucic acid-induced myocardial steatosis is used to compare the effect of the 14 day-administration of 250 and 125 mg/kg e.p. of L-carnitine with that of L-carnitine phosphorylethanolamide at the same doses for the same study period.
Moreover other tests were carried out using a model of olive-oil induced hyperlipemia in the rat. L-carnitine was administered at 250 and 125 mg/kg endoperitoneally for 14 days, as was L-carnitine phosphorylethanolamide at 250 and 125 mg/kg endoperitoneally for 14 days. The following parameters were evaluated:
Moreover it is efficacious in re-establishing the balance between fatty acids' oxidation and uptake, and in stimulating acetyl-CoA's oxidation in Kreb's cycle. Important to underline is that to these actions, another, of a more ubiquitary nature, must be added. […]

[4] = 250 mg/kg endoperitoneally, 5 days, statistically significant (Student's t test)
[5] = Table 1, 250 mg/kg e.p., 5 days, P < 0.001

C[N+](C)(C)CC(O)CC(=O)NCCOP(=O)([O-])O [L-carnitine phosphorylethanolamide]
ATP values [1, 4]: brought back to normal the ATP values | accumulation of triglycerides in the myocardium [1, 4]: reduced the accumulation of triglycerides in the myocardium | cholesterol levels [1, 4]: lowered the cholesterol levels | ATP, change vs controls [1, 5]: +76.9% | Triglycerides, change vs controls [1, 5]: -47.9% | Cholesterol, change vs controls ([1]; Table 1, 250 mg/kg e.p., 5 days, P < 0.01): -60.9% | Cholesterol ([1]; Table 1, 250 mg/kg e.p., 5 days, spread of treated group ±7.16 on next line, P < 0.01): 12.8 mg/g of fresh tissue | ATP ([1]; Table 1, 250 mg/kg e.p., 5 days, spread of treated group ±5.78 on next line, P < 0.001): 60.5 nM/g proteines | Main effects observed (normal mouse's behaviour): apparently normal | LD50 at 168 h [2]: > 8000 mg/kg | N° of dead animals (mouse; 1000 mg/kg e.p.): 0 | N° of dead animals (mouse; 2000 mg/kg e.p.): 0 | N° of dead animals (mouse; 4000 mg/kg e.p.): 0 | N° of dead animals (mouse; 8000 mg/kg e.p.): 0 | solubility in most of the common organic solvents ([3]; common organic solvents): insoluble in most of the common organic solvents | solubility ([3]; water and methanol at room temperature, warm ethanol): Soluble in water and methanol at room temperature and in warm ethanol | hygroscopicity ([3]; white, amorphous powder, inner salt): hygroscopic | normalization of myocardial hypertriglyceridemia and hyperlipemia, induced by erucic acid treatment (lipid metabolism): extremely active | re-establishing the balance between fatty acids' oxidation and uptake, and stimulating acetyl-CoA's oxidation in Kreb's cycle (lipid metabolism): efficacious

C[N+](C)(C)C[C@H](O)CC(=O)[O-] [L-carnitine]
Triglycerides, change vs controls ([1]; Table 2, 250 mg/kg endoperitoneally for 5 days, P < 0.001): -60.1% | Cholesterol, change vs controls ([1]; Table 2, 250 mg/kg endoperitoneally for 5 days, n.s.): -34.5% | Cholesterol ([1]; Table 2, 250 mg/kg endoperitoneally for 5 days, spread of treated group ±7.01 on next line, n.s.): 24.7 mg/g of fresh tissue | ATP ([1]; Table 2, 250 mg/kg endoperitoneally for 5 days, spread of treated group ±20.28 on next line, P < 0.05): 57.3 nM/g proteines
